Assay results reported in patent publication US9381200B2, “Nitrogen containing compounds” (WOCKHARDT LIMITED, priority 2011, dated 2016).
In brackets after ≈: the same amount, converted by molar mass. Where two headings read alike, the source gives them in different places.

Experiments:
Type in all cases: cell-based
[1] = test system: E. coli M 50; experiment: Antibacterial activity (MIC), agar dilution per CLSI; conditions: Escherichia coli, read-out: MIC
Procedure: (§1) The biological activity of representative compounds according to the invention against various bacterial strains was investigated. In a typical study, overnight grown bacterial cultures were diluted appropriately and inoculated on the agar media containing doubling dilutions of the test compounds. Observation for growth or no growth was performed after 16-20 hours of incubation at 35±2° C. in ambient air. The overall procedure was performed as per Clinical and Laboratory Standards Institute (CLSI) recommendations (Clinical and Laboratory Standards Institute (CLSI), Performance Standards for Antimicrobial Susceptibility Testing, 20th Informational Supplement, M 100-S20, Volume 30, No. 1, 2010).
(§2) The activities are expressed as MICs (mcg/ml).

[2] = test system: P. aeruginosa Ps 32; experiment: Antibacterial activity (MIC) against MDR Gram negative strains; conditions: Pseudomonas aeruginosa, PS32; Table 5; P. aeruginosa Ps 32; read-out: MIC
Procedure: as §1, §2

[3] = test system: E. Coli W 13353; experiment: as above; conditions: Escherichia coli; Table 4; E. Coli W 13353, Class A ESBL, MDR; read-out: MIC
Procedure: as §1, §2

[4] = test system: E. Coli W 13352; experiment: as above; conditions: Escherichia coli; Table 4; E. Coli W 13352, Class A ESBL, MDR; read-out: MIC
Procedure: as §1, §2

[5] = test system: P. aeruginosa Ps 21; experiment: as above; conditions: Pseudomonas aeruginosa, PS21; Table 5; P. aeruginosa Ps 21; read-out: MIC
Procedure: as §1, §2

[6] = test system: E. Coli M 3; experiment: as above; conditions: Escherichia coli; Table 5; E. Coli M 3, Class B ESBL, MDR; read-out: MIC
Procedure: as §1, §2

[7] = test system: K. penumoniae S 48; experiment: as above; conditions: Table 5; K. penumoniae S 48, Class B ESBL, MDR; read-out: MIC
Procedure: as §1, §2

[8] = test system: E. Coli M 44; experiment: as above; conditions: Escherichia coli; Table 5; E. Coli M 44, Class B ESBL, MDR; read-out: MIC
Procedure: as §1, §2

[9] = test system: P. aeruginosa ATCC 27853; experiment: as above; conditions: Pseudomonas aeruginosa, ATCC27853; Table 5; P. aeruginosa ATCC 27853; read-out: MIC
Procedure: as §1, §2

[10] = test system: K penumoniae H 521; experiment: as above; conditions: Table 4; K penumoniae H 521, KPC ESBL, MDR; read-out: MIC
Procedure: as §1, §2

[11] = test system: E. Coli W 13351; experiment: as above; conditions: Escherichia coli; Table 4; E. Coli W 13351, Class A ESBL, MDR; read-out: MIC
Procedure: as §1, §2

[12] = test system: K penumoniae H 525; experiment: as above; conditions: Table 4; K penumoniae H 525, KPC ESBL, MDR; read-out: MIC
Procedure: as §1, §2

[13] = test system: E. Coli B 89; experiment: as above; conditions: Escherichia coli; Table 4; E. Coli B 89, Class C ESBL, MDR; read-out: MIC
Procedure: as §1, §2

[14] = test system: K penumoniae H 523; experiment: as above; conditions: Table 4; K penumoniae H 523, KPC ESBL, MDR; read-out: MIC
Procedure: as §1, §2

[15] = test system: E. Coli H 484; experiment: as above; conditions: Escherichia coli; Table 4; E. Coli H 484, Class C ESBL, MDR; read-out: MIC
Procedure: as §1, §2

[16] = test system: E. coli 7 MP; experiment: Antibacterial activity (MIC), agar dilution per CLSI; conditions: Escherichia coli, Table 3, E. coli 7 MP expressing ESBL, read-out: MIC
Procedure: as §1
(§3) Table 3 details antibacterial activity of representative compounds according to the invention against various E. coli strains (NCTC 13351, M 50 and 7 MP) expressing ESBL (Extended Spectrum Beta Lactamases).

[17] = test system: E. coli NCTC 13351; experiment: as above; conditions: Escherichia coli, NCTC13351, Table 3, E. coli NCTC 13351 expressing ESBL, 16-20 hours, 35±2° C., read-out: MIC
Procedure: as §1, §3

[18] = M50, Table 3, E. coli M 50 expressing ESBL, agar dilution
[19] = M50, Table 4, E. Coli M 50, Class C ESBL, MDR

SMILES	MIC [1, 18]	MIC [1, 19]	MIC [2]	MIC [3]	MIC [4]	MIC [5]	MIC [6]	MIC [7]	MIC [8]	MIC [9]	MIC [10]	MIC [11]	MIC [12]	MIC [13]	MIC [14]	MIC [15]	MIC [16]	MIC [17]
O=C(NNC(=O)[C@H]1CCCN1)[C@H]1CC[C@@H]2CN1C(=O)N2OS(=O)(=O)O (mixture of isomers) [Example 30, trans-sulfuric acid mono-[2-(N′—[(R)-pyrrolidin-2-carbonyl]-hydrazinocarbonyl)-7-oxo-1,6-diaza-bicyclo[3.2.1]oct-6-yl]ester]	8 µg/mL	8 µg/mL	> 32 µg/mL	8 µg/mL	16 µg/mL	> 32 µg/mL	8 µg/mL	> 32 µg/mL	16 µg/mL	> 32 µg/mL	8 µg/mL	16 µg/mL	> 32 µg/mL	8 µg/mL	8 µg/mL	8 µg/mL	32 µg/mL	16 µg/mL
N[C@@H]1CN[C@H](C(=O)NNC(=O)[C@H]2CC[C@@H]3CN2C(=O)N3OS(=O)(=O)O)C1 (mixture of isomers) [Example 35, trans-sulfuric acid mono-[2-(N′-[(2S,4S)-4-amino-pyrrolidin-2-carbonyl]-hydrazinocarbonyl)-7-oxo-1,6-diaza-bicyclo[3.2.1]oct-6-yl]ester]	1 µg/mL	1 µg/mL	32 µg/mL	1 µg/mL	1 µg/mL	> 32 µg/mL	1 µg/mL	2 µg/mL	2 µg/mL	> 32 µg/mL	2 µg/mL	1 µg/mL	1 µg/mL	1 µg/mL	1 µg/mL	1 µg/mL	4 µg/mL	1 µg/mL

Further lines, results first:

MIC [1, 18]	MIC [1, 19]	MIC [2]	MIC [3]	MIC [4]	MIC [5]	MIC [6]	MIC [7]	MIC [8]	MIC [9]	MIC [10]	MIC [11]	MIC [12]	MIC [13]	MIC [14]	MIC [15]	MIC [16]	MIC [17]	SMILES
1 µg/mL	2 µg/mL	> 32 µg/mL	2 µg/mL	2 µg/mL	> 32 µg/mL	8 µg/mL	2 µg/mL	1 µg/mL	> 32 µg/mL	4 µg/mL	2 µg/mL	2 µg/mL	2 µg/mL	2 µg/mL	16 µg/mL	4 µg/mL	2 µg/mL	O=C(NNC(=O)[C@H]1CC[C@@H]2CN1C(=O)N2OS(=O)(=O)O)[C@@H]1C[C@H](F)CN1 (mixture of isomers) [Example 11, trans-sulfuric acid mono-[2-(N′-[(2S,4S)-4-fluoro-pyrrolidin-2-carbonyl]-hydrazinocarbonyl)-7-oxo-1,6-diaza-bicyclo[3.2.1]oct-6-yl]ester]
0.5 µg/mL	0.5 µg/mL	> 32 µg/mL	0.25 µg/mL	0.5 µg/mL	> 32 µg/mL	0.5 µg/mL	0.5 µg/mL	0.5 µg/mL	> 32 µg/mL	0.5 µg/mL	0.5 µg/mL	0.5 µg/mL	0.5 µg/mL	0.5 µg/mL	4 µg/mL	2 µg/mL	0.5 µg/mL	O=C(NNC(=O)[C@H]1CC[C@@H]2CN1C(=O)N2OS(=O)(=O)O)[C@@H]1CCCCN1 (mixture of isomers) [Example 17, trans-sulfuric acid mono-[2-(N′—((S)-piperidin-2-carbonyl)-hydrazinocarbonyl)-7-oxo-1,6-diaza-bicyclo[3.2.1]oct-6-yl]ester]
0.25 µg/mL (≈ 0.639 µM)	0.5 µg/mL (≈ 1.28 µM)	8 µg/mL (≈ 20.4 µM)	0.5 µg/mL (≈ 1.28 µM)	0.5 µg/mL (≈ 1.28 µM)	16 µg/mL (≈ 40.9 µM)	0.5 µg/mL (≈ 1.28 µM)	4 µg/mL (≈ 10.2 µM)	0.25 µg/mL (≈ 0.639 µM)	8 µg/mL (≈ 20.4 µM)	0.5 µg/mL (≈ 1.28 µM)	0.5 µg/mL (≈ 1.28 µM)	0.25 µg/mL (≈ 0.639 µM)	0.5 µg/mL (≈ 1.28 µM)	0.25 µg/mL (≈ 0.639 µM)	2 µg/mL (≈ 5.11 µM)	2 µg/mL (≈ 5.11 µM)	0.5 µg/mL (≈ 1.28 µM)	O=C(NNC(=O)[C@H]1CC[C@@H]2CN1C(=O)N2OS(=O)(=O)O)C1CCCNC1 (mixture of isomers) [Example 14, trans-sulfuric acid mono-[2-(N′—((RS)-piperidin-3-carbonyl)-hydrazinocarbonyl)-7-oxo-1,6-diaza-bicyclo[3.2.1]oct-6-yl]ester]
